Like-named read-outs stand apart in the source and are kept apart here.
Target: T1, hTLR7 (Homo sapiens, UniProt Q9NYK1)
T1 construct: host or cells: HEK-Blue hTLR7 (HEK293-derived reporter cell line)
T1 sequence (Q9NYK1 27-1049): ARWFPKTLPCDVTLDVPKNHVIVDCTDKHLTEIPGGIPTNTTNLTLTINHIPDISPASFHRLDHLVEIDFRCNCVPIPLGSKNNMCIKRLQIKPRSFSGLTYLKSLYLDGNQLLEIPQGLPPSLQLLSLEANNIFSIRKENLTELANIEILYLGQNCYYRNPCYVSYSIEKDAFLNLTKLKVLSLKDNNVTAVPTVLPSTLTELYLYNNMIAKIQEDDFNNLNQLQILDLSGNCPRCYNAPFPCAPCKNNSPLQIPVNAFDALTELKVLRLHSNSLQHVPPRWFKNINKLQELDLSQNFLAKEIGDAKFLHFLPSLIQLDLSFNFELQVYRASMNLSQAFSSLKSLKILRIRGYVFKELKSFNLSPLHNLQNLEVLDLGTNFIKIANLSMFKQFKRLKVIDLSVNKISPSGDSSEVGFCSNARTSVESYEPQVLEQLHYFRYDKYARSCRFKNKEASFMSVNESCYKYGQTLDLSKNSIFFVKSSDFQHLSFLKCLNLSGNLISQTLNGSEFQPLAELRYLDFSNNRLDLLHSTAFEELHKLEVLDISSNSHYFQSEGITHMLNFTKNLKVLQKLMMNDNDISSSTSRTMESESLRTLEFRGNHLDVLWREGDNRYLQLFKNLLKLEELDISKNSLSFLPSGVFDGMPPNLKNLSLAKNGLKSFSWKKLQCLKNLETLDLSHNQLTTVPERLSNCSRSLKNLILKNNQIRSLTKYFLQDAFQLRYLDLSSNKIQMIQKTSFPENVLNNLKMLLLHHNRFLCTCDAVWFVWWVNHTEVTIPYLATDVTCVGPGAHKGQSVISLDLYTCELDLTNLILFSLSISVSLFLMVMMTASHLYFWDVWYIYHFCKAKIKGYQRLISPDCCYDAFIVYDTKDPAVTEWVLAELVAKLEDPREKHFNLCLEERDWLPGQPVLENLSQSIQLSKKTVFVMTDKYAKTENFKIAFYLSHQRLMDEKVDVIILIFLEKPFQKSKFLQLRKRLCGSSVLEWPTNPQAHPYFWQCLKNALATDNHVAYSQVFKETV
Test: HEK-Blue hTLR7 reporter assay (NF-kB-induced SEAP, Quanti-Blue, OD 655 nm)
Type: cell-based
Details: for TLR7 activity / potency stated in words: FIGS. 6-9
Experimental: HEK-Blue™ hTLR7 cells were incubated in HEK-Blue™ Detection medium and stimulated with increasing concentrations of TLR7 or TLR8 or TLR7/8 agonists. […] The EC50 was determined from dose-response curve using Prism Software.

[1] = Table 14, FIG. 8, (DL) = drug linker, read-out: TLR7 EC50
[2] = text to FIG. 5B and FIG. 8, read-out: EC50 values (TLR7)

Row | SMILES | TLR7 activity / potency stated in words | EC50 [1] | also measured
1 | CCCCOc1nc(N)c2[nH]c(=O)n(Cc3ccc(CN4CCC(CCNC(=O)c5ccc(N)c(OC)c5)CC4)cc3)c2n1 [AXC-895, 4-amino-N-(2-(1-(4-((6-amino-2-butoxy-8-oxo-7H-purin-9(8H)-yl)methyl)benzyl)piperidin-4-yl)ethyl)-3-methoxybenzamide] | highest potency | – | –
2 | CCCCOc1nc(N)c2[nH]c(=O)n(Cc3ccc(CN4CCC(CCNC(=O)c5ccc(CCN)cc5)CC4)cc3)c2n1 [AXC-904, N-(2-(1-(4-((6-amino-2-butoxy-8-oxo-7,8-dihydro-9H-purin-9-yl)methyl)benzyl)piperidin-4-yl)ethyl)-4-(2-aminoethyl)benzamide] | – | 8.1 nM | EC50 [2]: < 10 nM
3 | CCCCOc1nc(N)c2[nH]c(=O)n(Cc3ccc(CN4CCC(CCNC(=O)c5ccc(N)cc5)CC4)cc3)c2n1 [AXC-905, 4-amino-N-(2-(1-(4-((6-amino-2-butoxy-8-oxo-7,8-dihydro-9H-purin-9-yl)methyl)benzyl)piperidin-4-yl)ethyl)benzamide] | – | 2.6 nM | –
4 | CCCCOc1nc(N)c2[nH]c(=O)n(Cc3ccc(CN4CCC(CCNC(=O)c5cccc(N)c5)CC4)cc3)c2n1 [AXC-903, 3-amino-N-(2-(1-(4-((6-amino-2-butoxy-8-oxo-7,8-dihydro-9H-purin-9-yl)methyl)benzyl)piperidin-4-yl)ethyl)benzamide] | – | 4.3 nM | EC50 [2]: < 10 nM
5 | CCCCOc1nc(N)c2[nH]c(=O)n(Cc3ccc(CN4CCC(C5CCN(C(=O)CON)CC5)CC4)cc3)c2n1 [AXC-901, 6-amino-9-(4-((1′-(2-(aminooxy)acetyl)-4,4′-bipiperidin-1-yl)methyl)benzyl)-2-butoxy-7H-purin-8(9H)-one] | highest potency | – | –
6 | CCOCc1nc2c(N)nc3ccccc3c2n1CCCCNC(=O)c1ccc(N)c(OC)c1 [AXC-807] | – | – | EC50 (Table 10, FIG. 5A, 24 h, read-out: TLR7 EC50): 413 nM
7 | CCCCNc1nc(N)c2[nH]c(=O)n(Cc3ccc(NCCN(C)CCNC(=O)CON)nc3)c2n1 [AXC-868, N-(2-((2-(5-((6-amino-2-(butylamino)-8-oxo-7H-purin-9(8H)-yl)methyl)pyridin-2-ylamino)ethyl)(methyl)amino)ethyl)-2-(aminooxy)acetamide] | – | – | EC50 (Table 12, FIG. 6, TLR7 agonists attached to a linker, read-out: TLR Agonist Payload + Linkers EC50): > 5000 nM
8 | CCCCOc1nc(N)c2[nH]c(=O)n(Cc3ccc(CN4CCC(CCNC(=O)CON)CC4)cc3)c2n1 [AXC-879, N-(2-(1-(4-((6-amino-2-butoxy-8-oxo-7H-purin-9(8H)-yl)methyl)benzyl)piperidin-4-yl)ethyl)-2-(aminooxy)acetamide] | highest potency | – | –

Source: patent publication US12569566B2, “Compositions containing, methods and uses of antibody-TLR agonist conjugates” (Ambrx, Inc., priority 2019, dated 2026)
